Data taken from article PMC3579193, “Elucidation of relaxin-3 binding interactions in the extracellular loops of RXFP3” (Frontiers in Endocrinology, 2013).
Changes are numbered by the printed parent chain. Entries after “also recorded” stand apart in the source; their conditions may differ.

What was measured:
HA-RXFP3 E55A/D58A = target: T1, HA-RXFP3 E55A/D58A (Homo sapiens, UniProt Q9NSD7, D58A/E55A); experiment: Competition binding with Eu-H3/I5, HA-RXFP3 E55A/D58A
T1 construct: expressed in transfected cells; host or cells: HEK-293T
T1 sequence (Q9NSD7 2-469 E55A/D58A limits assumed): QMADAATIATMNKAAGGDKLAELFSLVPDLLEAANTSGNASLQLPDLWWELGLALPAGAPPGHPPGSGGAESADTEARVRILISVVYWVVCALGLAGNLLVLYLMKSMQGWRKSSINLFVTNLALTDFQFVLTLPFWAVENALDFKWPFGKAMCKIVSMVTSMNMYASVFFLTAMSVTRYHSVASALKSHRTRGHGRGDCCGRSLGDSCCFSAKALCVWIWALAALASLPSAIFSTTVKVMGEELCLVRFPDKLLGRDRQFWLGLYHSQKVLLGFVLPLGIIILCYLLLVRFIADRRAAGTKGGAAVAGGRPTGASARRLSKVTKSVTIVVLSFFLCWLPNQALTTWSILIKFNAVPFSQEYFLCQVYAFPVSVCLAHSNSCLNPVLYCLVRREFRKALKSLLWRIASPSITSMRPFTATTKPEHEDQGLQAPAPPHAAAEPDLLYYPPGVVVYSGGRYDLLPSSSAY
Procedure: (§1) PCR reactions and cloning were undertaken as previously described ([Scott et al., 2006], [2012]).
(§2) The same protocol was used to prepare DNA templates of all Glu/Asp to Ala mutants, entailing a single codon change except for D47A/E51A, E55A/D58A, and E141A/D145A which required a double codon change both to Ala. The forward and reverse primers for all mutants are listed in Table 1 and mutagenesis reactions on pcDNA3.1zeo (+)-HA-RXFP3 were performed as previously described ([Scott et al., 2006]; [Yan et al., 2008]). […]
(§3) HEK-293T cells were transfected in 96 well optiplates (Perkin Elmer) with plasmids encoding the constructs of interest and Eu-H3/I5 binding assays conducted as described previously ([Luo et al., 2010]; [Haugaard-Kedstrom et al., 2011]). […] Binding data are expressed as mean ± standard error of mean (SEM) of % specific binding of triplicate measurements pooled from at least three independent experiments. Data were analyzed using Graphpad PRISM (Graphpad Inc.) and a non-linear regression one-site binding model was used to plot curves and calculate pIC50 values. […] The HA epitope was detected using a purified mouse monoclonal anti-HA antibody [HA.11(16B12), Covance] and a Alexafluor488-labeled goat anti mouse IgG (Invitrogen) in cell surface expression assays that were performed in 24 well plates as previously described ([Yan et al., 2008]). […]

HA-RXFP3 ∆1–33 = target: T2, HA-RXFP3 ∆1–33 (Homo sapiens, UniProt Q9NSD7); experiment: Competition binding with Eu-H3/I5, HA-RXFP3 ∆1–33
T2 construct: expressed in transfected cells; host or cells: HEK-293T
T2 sequence (Q9NSD7 34-469): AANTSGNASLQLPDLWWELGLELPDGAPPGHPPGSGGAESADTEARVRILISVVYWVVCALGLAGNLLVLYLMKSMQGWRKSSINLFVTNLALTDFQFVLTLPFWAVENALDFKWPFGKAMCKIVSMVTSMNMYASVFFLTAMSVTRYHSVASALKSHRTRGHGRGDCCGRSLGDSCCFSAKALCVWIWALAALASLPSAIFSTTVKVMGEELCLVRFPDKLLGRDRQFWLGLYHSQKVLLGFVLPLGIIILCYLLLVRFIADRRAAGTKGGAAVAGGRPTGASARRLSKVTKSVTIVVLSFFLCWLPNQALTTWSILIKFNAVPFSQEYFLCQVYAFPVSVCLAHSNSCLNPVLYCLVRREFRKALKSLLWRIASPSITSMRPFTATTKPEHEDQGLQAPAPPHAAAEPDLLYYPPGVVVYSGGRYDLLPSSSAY
Excerpt: as §1
A pcDNA3.1zeo (+) vector with a start codon and HA tag (pcDNA3.1zeo (+)-HA) was produced by ligating a double stranded primer containing a BamHI site at the 5′ end followed by a start codon and HA tag and then a EcoRV blunt site at the 3′ end (Table 2) into a pcDNA3.1zeo (+) vector cut with BamHI and EcoRV. […]
HEK-293T cells were transfected in 96 well optiplates (Perkin Elmer) with plasmids encoding the constructs of interest and Eu-H3/I5 binding assays conducted as described previously ([Luo et al., 2010]; [Haugaard-Kedstrom et al., 2011]). […] Binding data are expressed as mean ± standard error of mean (SEM) of % specific binding of triplicate measurements pooled from at least three independent experiments. Data were analyzed using Graphpad PRISM (Graphpad Inc.) and a non-linear regression one-site binding model was used to plot curves and calculate pIC50 values. […] The HA epitope was detected using a purified mouse monoclonal anti-HA antibody [HA.11(16B12), Covance] and a Alexafluor488-labeled goat anti mouse IgG (Invitrogen) in cell surface expression assays that were performed in 24 well plates as previously described ([Yan et al., 2008]). […] Pooled data were analyzed using one-way ANOVA coupled to Newman–Keuls multiple comparison test for multiple group comparison.

HA-RXFP3 E77A = target: T3, HA-RXFP3 E77A (Homo sapiens, UniProt Q9NSD7, E77A); experiment: Competition binding with Eu-H3/I5, HA-RXFP3 E77A
T3 construct: expressed in transfected cells; host or cells: HEK-293T
T3 sequence (Q9NSD7 2-469 E77A limits assumed): T1 sequence (Q9NSD7 2-469 E55A/D58A limits assumed) with A54E, A57D, E76A
Procedure: as §1, §2, §3

## CC[C@H](C)[C@@H]1NC(=O)[C@H](Cc2ccccc2)NC(=O)[C@H](CCC(=O)O)NC(=O)[C@H](CCCNC(=N)N)NC(=O)CNC(=O)[C@@H](NC(=O)[C@H](CC(C)C)NC(=O)[C@H](CCCNC(=N)N)NC(=O)[C@@H](NC(=O)CNC(=O)[C@H](Cc2ccc(O)cc2)NC(=O)[C@@H]2CCCN2C(=O)[C@H](C)NC(=O)[C@H](C)NC(=O)[C@@H](N)CCCNC(=N)N)C(C)C)CSSC[C@@H]2NC(=O)[C@@H](NC(=O)[C@H](CO)NC(=O)[C@H](CO)NC(=O)[C@H](CO)NC(=O)[C@H](CC(C)C)NC(=O)CNC(=O)[C@H](C)NC(=O)[C@H](CC(C)C)NC(=O)[C@@H](NC(=O)[C@@H](N)CC(=O)O)C(C)C)CSSC[C@H](NC(=O)CNC(=O)[C@H](Cc3c[nH]c4ccccc34)NC(=O)[C@H](CCCCN)NC2=O)C(=O)N[C@@H](CO)C(=O)N[C@@H](CCCCN)C(=O)N[C@@H](CO)C(=O)N[C@@H](CCC(=O)O)C(=O)N[C@@H]([C@@H](C)CC)C(=O)N[C@@H](CO)C(=O)N[C@@H](CO)C(=O)N[C@@H](CC(C)C)C(=O)N[C@H](C(=O)O)CSSC[C@@H](C(=O)NCC(=O)NCC(=O)N[C@@H](CO)C(=O)N[C@@H](CCCNC(=N)N)C(=O)N[C@@H](Cc2c[nH]c3ccccc23)C(=O)O)NC(=O)[C@H]([C@@H](C)O)NC(=O)[C@H](Cc2ccccc2)NC(=O)[C@H]([C@@H](C)CC)NC(=O)[C@H](C(C)C)NC(=O)[C@H](C)NC(=O)[C@H](CCCNC(=N)N)NC1=O [H3 relaxin]
HA-RXFP3 E55A/D58A
  IC50: 9.33 nM
HA-RXFP3 E55A/D58A; competition binding, p > 0.05
  affinity compared with HA-RXFP3: not significantly different from HA-RXFP3
HA-RXFP3 ∆1–33
  IC50: 14.8 nM
HA-RXFP3 ∆1–33; vs HA-RXFP3, competition binding
  effect on affinity of truncation: no significant effect on the affinity
HA-RXFP3 E77A
  IC50: 31.6 nM
HA-RXFP3 E77A; competition binding, p > 0.05
  affinity compared with HA-RXFP3: slightly lower H3 relaxin binding affinity but this was not significantly different from HA-RXFP3; also recorded: no significant difference in H3 relaxin affinity; also recorded: did not show a significant drop in binding
